Results from patent publication US8569339B2, “Soluble guanylate cyclase activators” (Boehringer Ingelheim International GmbH, priority 2011, dated 2013).
In brackets after ≈: the same amount, converted by molar mass. Several values for one entry are separate records, joined by “and”; a condition that tells them apart may be missing. Equal values may be shown once.

Key:
[1] = Assessment of solubility (HT solubility, pION, UV); type: physicochemical; settings: incubated 16-19 hours, 1.0% DMSO, 100 uM; for solubility kinetic: pH 4.5 buffer (pION system solution), pH 4.5, aqueous buffer, kinetic from dmso stock, read-out: Sol pH 4.5; for Sol pH 7.4: pH 7.4 buffer
Procedure: Solubility is measured by the following method.
DMSO stock samples at 10 mM conc are prepared. […] The samples are pierced and 100 ul of thawed samples are transferred into the PCR plate for analysis. Each sample is run in duplicate at each pH (pH 4.5 and 7.4). Up to 95 samples can be run in replicate at 2 pH's+1 DMSO (blank).
2. Preparation of pH 4.5 and 7.4 buffers:
pH 4.5 buffer: To 12.5 of system solution (pION) qs to 500 mL of distilled water (pH 2.85-2.90); adjust the pH to pH 4.5 with 0.5 N NaOH.
pH 7.4 buffer: To 12.5 of system solution (pION) qs to 500 mL of distilled water (pH 2.85-2.90); adjust the pH to pH 7.4 with 0.5N NaOH.
Preparation of UV blank plate:
75 ul of buffer (pH 7.4 or pH 4.5) is added to UV plate followed by addition of […] of N-propanol. The solution is mixed and the blank spectrum is read using spectrophotometer.
Preparation of Reference UV plate:
10 ul of each stock sample (including DMSO control) is added to 190 ul of N-propanol to prepare the reference stock plate. Reference stock samples are mixed and 5 ul of each stock sample is added to UV blank plate after it is read spectrophotometrically. The reference stock sample is mixed with blank solution in UV plate and the reference spectrum is read using UV spectrophotometer.
Preparation of sample for incubation:
Solubility at pH 7.4: 6 ul of each stock sample (including DMSO control) is added to the storage plate containing 600 ul of pH 7.4 buffer, mixed and incubated for 16-19 hours. The plate is sealed well during the incubation process. The DMSO content in the sample is 1.0%. The concn in deep well plates is 100 uM
6 ul of each stock sample (including DMSO control) is added to the deep well plate containing 600 ul of pH 4.5 buffer, mixed and incubated for 16-19 hours. The plate is sealed well during the incubation process. The DMSO content in the sample is 1.0%. The concn in deep well plates is 100 uM
Preparation of sample UV plate:
At the end of the incubation period, 100 uL of sample from the storage plate is vacuum filtered using a filter plate. This step wets the filters and the filtrate is discarded. Another 200 ul of the sample from the deep well plate is vacuum filtered using the same filter block but a clean filter plate. 75 ul of the filtrate from the filter plate is transferred to a UV sample plate. 75 ul of N-propanol is added to this UV plate. The solution is mixed and the spectrum is read using the UV spectrophotometer.
The spectra collected for blank, reference and sample from 250-498 nm is analyzed using pION software. If the sample precipitates out, the solubility is reported as XX μg/ml. If there is no precipitation and the sample is soluble, solubility is reported as […] (YY being the initial concentration of the compound in the sample).

[2] = biological target: T1, Recombinant human soluble guanylate cyclase (sGC) (Homo sapiens, UniProt Q02153); assay: Molecular assay: activation of heme-free sGC, cGMP detection (CisBio kit); type: biochemical; settings: 300 pM heme-free sGC, 37° C., 60 minutes, cGMP formation
T1 construct: histidine tag (C); made in house; host or cells: Sf9 insect cells (baculovirus coinfection)
T1 sequence (Q02108 whole entry partner): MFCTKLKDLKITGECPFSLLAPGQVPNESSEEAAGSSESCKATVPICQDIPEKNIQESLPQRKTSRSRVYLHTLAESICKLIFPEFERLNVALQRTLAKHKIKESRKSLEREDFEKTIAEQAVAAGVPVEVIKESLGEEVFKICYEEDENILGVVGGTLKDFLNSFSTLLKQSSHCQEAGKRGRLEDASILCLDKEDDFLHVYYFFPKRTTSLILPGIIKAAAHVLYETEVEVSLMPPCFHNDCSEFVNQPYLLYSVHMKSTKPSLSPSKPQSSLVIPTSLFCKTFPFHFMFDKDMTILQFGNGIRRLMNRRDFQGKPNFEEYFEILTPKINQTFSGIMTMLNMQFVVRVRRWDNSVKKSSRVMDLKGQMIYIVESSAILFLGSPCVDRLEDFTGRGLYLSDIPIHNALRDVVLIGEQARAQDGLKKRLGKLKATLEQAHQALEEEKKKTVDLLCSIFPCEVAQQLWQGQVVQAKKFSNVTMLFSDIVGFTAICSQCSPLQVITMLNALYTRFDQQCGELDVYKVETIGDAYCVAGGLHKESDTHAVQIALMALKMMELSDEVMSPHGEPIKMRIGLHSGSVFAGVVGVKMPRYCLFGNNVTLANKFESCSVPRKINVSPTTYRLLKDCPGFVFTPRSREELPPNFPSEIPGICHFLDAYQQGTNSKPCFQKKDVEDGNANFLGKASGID
T1 sequence (Q02153 whole entry): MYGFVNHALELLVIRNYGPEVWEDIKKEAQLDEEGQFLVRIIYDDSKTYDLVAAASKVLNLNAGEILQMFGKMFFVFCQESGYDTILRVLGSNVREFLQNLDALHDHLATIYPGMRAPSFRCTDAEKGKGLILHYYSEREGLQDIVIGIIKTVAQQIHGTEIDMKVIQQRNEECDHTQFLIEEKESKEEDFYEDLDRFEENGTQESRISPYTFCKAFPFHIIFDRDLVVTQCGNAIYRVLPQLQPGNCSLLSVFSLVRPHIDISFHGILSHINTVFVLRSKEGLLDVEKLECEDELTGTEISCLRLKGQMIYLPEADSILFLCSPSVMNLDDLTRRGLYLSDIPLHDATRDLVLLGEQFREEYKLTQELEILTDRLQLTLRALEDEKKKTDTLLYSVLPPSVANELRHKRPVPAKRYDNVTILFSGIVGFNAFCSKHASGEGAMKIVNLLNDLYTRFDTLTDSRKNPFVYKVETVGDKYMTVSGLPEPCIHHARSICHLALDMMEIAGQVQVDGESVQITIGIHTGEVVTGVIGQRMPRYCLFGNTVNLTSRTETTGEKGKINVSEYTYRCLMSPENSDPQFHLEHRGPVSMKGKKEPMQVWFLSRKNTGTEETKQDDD
Procedure: The compounds of the invention may be evaluated in the following molecular assay:
Recombinant human soluble guanylate cyclase (sGC) is purified from Sf9 insect cells coinfected with baculoviruses expressing the alpha 1 or beta 1 subunit of sGC, both with a C-terminal histidine tag. Heme-free sGC is prepared by treating cell lysate with a final concentration of 0.5% Tween 20 prior to purification on a nickel affinity column.
sGC catalyzes the conversion of guanosine-5′-triphosphate (GTP) to cyclic guanosine monophosphate (cGMP). The activity of sGC is measured in vitro using the commercially available CisBio cGMP detection kit (catalog #62GM2PEB) in a 384 well format. In brief, 300 pM heme-free sGC is incubated in reaction buffer (50 mM MOPS pH 6.8, 0.2 N KOH, 50 mM NaCl, 2 mM MgCl2, 0.1% BSA, 1.25 mM IBMX, 0.25 mM TCEP, 50 nM GTP) in the presence or absence of dilutions of test compounds diluted in DMSO (final concentration of 1%) in a volume of 10 microL at 37° C. for 60 minutes. Undiluted reaction products or an 80-fold dilution of reaction products (10 microL of either) prepared in reaction buffer containing 0.2 mM TCEP and 10 mM EDTA is mixed with 5 microL of d2-cGMP plus 5 microL of Eu^3+cryptate-labeled anti-cGMP, each diluted in buffer containing 0.1 M KPO4 pH 7.5, 0.4 M KF, 20 mM EDTA, 0.2% BSA. After a one hour incubation at room temperature in the dark, the mixtures are quantified on an EnVision plate reader (PerkinElmer) according to manufacturer instructions (laser excitation 337 nm, emission 620 and 665 nm). The ratio at each compound concentration is converted to nM cGMP using the linear portion of a calibration curve. Log compound concentration is plotted against combined undiluted and diluted nM cGMP values to determine the EC50 for each curve.
Representative compounds of the present invention were tested for activity in the above assay. Preferred compounds have an IC50<5,000 nM and more preferred compounds have an IC50<100 nM in this assay.

solubility kinetic ([1]; pH 4.5 buffer)	Sol pH 7.4 [1]	EC50 [2]	Sol pH 4.5 ([1]; pH 4.5 buffer)	SMILES
> 70 µg/mL	>70 μg/mL	69 nM		Cc1cccc(-c2cccc(-c3c(C)c(C(=O)O)nn3C(C)(C)C)n2)c1OCc1ccc2c(c1)CCN(C1CCOCC1)C2 [Compound 84]
> 80 µg/mL	>80 μg/mL	1200 nM		Cc1ccc(OCc2ccc3c(c2)CCN(C2CCOCC2)C3)c(-c2cccc(-c3c(C)c(C(=O)O)nn3C)n2)c1 [Compound 79]
40.1 µg/mL (≈ 72.3 µM)	51.4 μg/mL	47 nM		Cc1ccc(OCc2ccc3c(c2C)CCN(C2CCOC2)C3)c(-c2cccc(-c3csc(C(=O)O)c3C)n2)c1 (stereo not shown) [Compound 53]
15.4 µg/mL (≈ 32.9 µM)	19.6 μg/mL	1700 nM		Cc1ccc(OCc2ccc3c(c2)CCN(C)C3)c(-c2cccc(-n3ncc(C(=O)O)c3C)n2)c1 [Compound 43, 5-methyl-1-{6-[5-methyl-2-(2-methyl-1,2,3,4-tetrahydro-isoquinolin-6-ylmethoxy)phenyl]pyridin-2-yl}-1H-pyrazole-4-carboxylic acid]
18.2 µg/mL (≈ 30.4 µM)	25.6 μg/mL	6 nM		Cc1ccc(OCc2ccc3c(c2)CCN(Cc2ccccc2)C3)c(-c2cccc(-n3ncc(C(=O)O)c3C(F)(F)F)n2)c1 [Compound 27]
> 65 µg/mL	>65 μg/mL	175 nM		Cc1cccc(-c2cccc(-c3ncc(C(=O)O)n3C)n2)c1OCc1ccc2c(c1)CCN(C1CCCOC1)C2 (stereo not shown) [Compound 75]
0.1 µg/mL (≈ 0.206 µM)	5.7 μg/mL	2000 nM		Cc1ccc(OCc2ccc3c(c2)CCN(C)C3)c(-c2cccc(-c3csc(C(=O)O)c3C)n2)c1 [Compound 46, 3-methyl-4-{6-[5-methyl-2-(2-methyl1,2,3,4-tetrahydroisoquinolin-6-ylmethoxy)phenyl]pyridin-2-yl}thiophene-2-carboxylic acid]
13.7 µg/mL (≈ 23.5 µM)	13.4 μg/mL	380 nM		Cc1ccc(OCc2ccc3c(c2)CCN(Cc2nc(C)cs2)C3)c(-c2cccc(-c3csc(C(=O)O)c3C)n2)c1 [Compound 50]
> 63 µg/mL	>63 μg/mL	44 nM		Cc1cccc(-c2cccc(-n3cnc(C(=O)O)c3C)n2)c1OCc1ccc2c(c1C)CCN(C1CCOC1)C2 (stereo not shown) [Compound 55]
> 59 µg/mL	>59 μg/mL	2 nM		Cc1ccc(OCc2ccc3c(c2)CCN(CC2CCOC2)C3)c(-c2cccc(-n3ncc(C(=O)O)c3C(F)(F)F)n2)c1 (stereo not shown) [Compound 23]
> 78 µg/mL	>78 μg/mL	2600 nM		Cc1ccc(OCc2ccc3c(c2)CCN(C2CCOCC2)C3)c(-c2cccc(-n3cnc(C(=O)O)c3C)n2)c1 [Compound 58]
> 60 µg/mL	>60 μg/mL	94 nM		Cc1cccc(-c2cccc(-c3c(C)c(C(=O)O)nn3CCC(=O)O)n2)c1OCc1ccc2c(c1)CCN(C1CCOCC1)C2 [Compound 85]
> 79 µg/mL	44.4 μg/mL	11 nM		Cc1ccc(OCc2ccc3c(c2C)CCN(CC2CCOC2)C3)c(-c2cccc(-c3csc(C(=O)O)c3C)n2)c1 (stereo not shown) [Compound 14]
0.1 µg/mL (≈ 0.17 µM)	>58 μg/mL	33 nM		Cc1ccc(OCc2ccc3c(c2)CCN(S(C)(=O)=O)C3)c(-c2cccc(-n3ncc(C(=O)O)c3C(F)(F)F)n2)c1 [Compound 5]
> 65 µg/mL	>65 μg/mL	775 nM		Cc1cccc(-c2cccc(-c3onc(C(=O)O)c3C)n2)c1OCc1ccc2c(c1)CCN(C1CCOCC1)C2 [Compound 86, 4-methyl-5-[6-[3-methyl-2-[(2-tetrahydropyran-4-yl-3,4-dihydro-1H-isoquinolin-6-yl)methoxy]phenyl]-2-pyridyl]isoxazole-3-carboxylic acid]
> 78 µg/mL	>78 μg/mL	21 nM		Cc1cccc(-c2cccc(-n3ncc(C(=O)O)c3C)n2)c1OCc1ccc2c(c1)CCN(C1CCOCC1)C2 [Compound 64]
> 60 µg/mL	>60 μg/mL	71 nM		Cc1ccc(OCc2ccc3c(c2)CCN(Cc2cncn2C)C3)c(-c2cccc(-n3ncc(C(=O)O)c3C(F)(F)F)n2)c1 [Compound 30]
51.5 µg/mL (≈ 82.7 µM)	>62 μg/mL	700 nM		Cc1cccc(-c2cccc(-c3c(C)c(C(=O)O)nn3C3CCOCC3)n2)c1OCc1ccc2c(c1)CCN(C1CCOCC1)C2 [Compound 89]
> 65 µg/mL	>65 μg/mL	31 nM		Cc1cccc(-c2cccc(-n3cnc(C(=O)O)c3C)n2)c1OCc1ccc2c(c1C)CCN(Cc1ccccn1)C2 [Compound 56]
> 110 µg/mL	>110 μg/mL	75 nM		Cn1c(C(=O)O)cnc1-c1cccc(-c2cccc(C(F)(F)F)c2OCc2ccc3c(c2)CCN(C2CCOCC2)C3)n1 [Compound 61]
> 54 µg/mL	>54 μg/mL	19 nM		Cc1ccc(OCc2ccc3c(c2)CCN(C2CC2)C3)c(-c2cccc(-n3ncc(C(=O)O)c3C(F)(F)F)n2)c1 [Compound 12]
> 76 µg/mL	32.6 μg/mL	165 nM		Cc1ccc(OCc2ccc3c(c2C)CCN(C2CCOC2)C3)c(-c2cccc(-c3ncc(C(=O)O)n3C)n2)c1 (stereo not shown) [Compound 54]
> 67 µg/mL	>67 μg/mL and >66 μg/mL	47 nM	>66 μg/mL	Cc1cccc(-c2cccc(-c3ncc(C(=O)O)n3C)n2)c1OCc1ccc2c(c1)CCN(CC1CCCOC1)C2 (stereo not shown) [Compound 73]
49 µg/mL (≈ 80 µM)	50.2 μg/mL	15 nM		Cc1cccc(-c2cccc(-c3c(C)c(C(=O)O)nn3C3CC3)n2)c1OCc1ccc2c(c1)CCN(C1CCC(F)(F)CC1)C2 [Compound 90]
22 µg/mL (≈ 36.4 µM)	>60 μg/mL	2 nM		Cc1ccc(OCc2ccc3c(c2)CCN(Cc2cc(C)on2)C3)c(-c2cccc(-n3ncc(C(=O)O)c3C(F)(F)F)n2)c1 [Compound 31]
48.4 µg/mL (≈ 87.6 µM)	31.7 μg/mL	185 nM		Cc1cccc(-c2cccc(-c3c(C)c(C(=O)O)nn3C)n2)c1OCc1ccc2c(c1)CCN(C1CCOCC1)C2 [Compound 81]
